In PMC10018702 (Nature chemistry, 2022):

Columns and labels:
[1] = molecular target: eukaryotic elongation factor-1α (eEF1A) (UniProt P68104); test: single-molecule FRET chase
[2] = molecular target: T1, eEF1A ternary complex on human ribosomes (Homo sapiens, UniProt P68104); test: smFRET ternary complex real-time delivery experiment; type: biochemical; conditions: 10 μM drug delivered with ternary complex, 25 °C
T1 sequence (P68104 1-462): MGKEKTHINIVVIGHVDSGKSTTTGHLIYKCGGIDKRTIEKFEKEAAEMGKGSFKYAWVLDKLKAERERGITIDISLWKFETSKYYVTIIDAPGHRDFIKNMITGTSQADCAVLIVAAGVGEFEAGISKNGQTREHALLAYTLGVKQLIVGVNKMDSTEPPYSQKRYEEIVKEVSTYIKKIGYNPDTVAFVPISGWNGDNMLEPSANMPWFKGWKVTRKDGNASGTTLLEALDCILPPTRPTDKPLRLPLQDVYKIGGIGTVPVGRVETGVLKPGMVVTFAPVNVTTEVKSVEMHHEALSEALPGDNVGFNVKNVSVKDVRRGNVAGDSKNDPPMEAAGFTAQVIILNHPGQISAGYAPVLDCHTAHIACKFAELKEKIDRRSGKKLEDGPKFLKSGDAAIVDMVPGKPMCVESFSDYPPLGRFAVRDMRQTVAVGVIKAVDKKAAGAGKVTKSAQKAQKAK

[3] = molecular target: T1, eEF1A ternary complex on human ribosomes; test: smFRET drug chase experiments; type: binding
[4] = mouse, in vivo, ip, 2 mg/kg
Eμ-Myc/+ lymphoma cells = test: Eμ-Myc lymphoma allograft model; conditions: 1.5 or 2.0 mg/kg, intraperitoneal, 3 times per week
[5] = system: cancer cell proliferation; conditions: cited from earlier work
HCT116 cells [6] = test: OPP incorporation assay; conditions: HCT116, 24 h continuous treatment, then 1-h OPP pulse
HCT116 cells [7] = conditions: HCT116, 72 h, alamarBlue
[8] = from rebinding constants, chase with 0-10 μM drug

ternatin-4 (peptide)
residence time [1]: 56 s

C=C[C@H](C)C[C@@H]1NC(=O)[C@H]([C@H](O)C(C)C)N(C)C(=O)[C@H](C)N(C)C(=O)[C@@H]([C@@H](C)CC)NC(=O)[C@@H]([C@H](O)C(C)C)NC(=O)[C@H]2CCCCN2C(=O)[C@H](C)N(C)C1=O [SR-A3]
aa-tRNA accommodation [2]: strongly inhibited | rebinding to stalled eEF1A-ribosome complex relative to SS-A3 [3, 8]: twice as fast | rebinding to stalled eEF1A-ribosome complex relative to ternatin-4 [3, 8]: four times as fast | residence time longer than ternatin-4 or SS-A3 ([3]; washout into drug-free buffer): about 60% | AUCinf, fold higher than ternatin-4 [4]: ~ 2.1 fold | Cmax, fold higher than ternatin-4 [4]: ~ 1.7 fold | body weight (Eμ-Myc/+ lymphoma cells): no significant body weight loss | tolerability (Eμ-Myc/+ lymphoma cells; both dose groups): well tolerated | survival of tumor-bearing mice (Eμ-Myc/+ lymphoma cells; n = 5 per group): dramatically prolonged survival

C=C[C@H](C)C[C@@H]1NC(=O)[C@H]([C@H](O)C(C)C)N(C)C(=O)[C@H](C)N(C)C(=O)[C@@H]([C@@H](C)CC)NC(=O)[C@@H]([C@H](O)C(C)C)NC(=O)[C@H]2CCCCN2C(=O)[C@H](C)N(C)C1=O [A3]
concentration inhibiting cancer cell proliferation [5]: low nanomolar concentrations

ternatin-4 [reference compound]
aa-tRNA accommodation [2]: strongly inhibited | potency in protein synthesis inhibition compared with SR-A3 (HCT116 cells [6]): behaved identically

C=C[C@H](C)C[C@@H]1NC(=O)[C@H]([C@@H](O)C(C)C)N(C)C(=O)[C@H](C)N(C)C(=O)[C@@H]([C@@H](C)CC)NC(=O)[C@@H]([C@H](O)C(C)C)NC(=O)[C@H]2CCCCN2C(=O)[C@H](C)N(C)C1=O [SS-A3]
aa-tRNA accommodation [2]: strongly inhibited | fold less potent than SR-A3 (HCT116 proliferation IC50) (HCT116 cells [7]): ~ 3 fold | potency in protein synthesis inhibition compared with SR-A3 (HCT116 cells [6]): slightly less potent
